Reference: patent publication US10787450B2 (BRISTOL-MYERS SQUIBB COMPANY, priority 2016, dated 2020)

Biological target: ROCK2 (Homo sapiens (Human), UniProt O75116)
Experiment: ROCK2 kinase inhibition assay (FITC peptide substrate, LABCHIP 3000 Reader)
Assay type: biochemical
Conditions: 5 μM ATP, 1.5 μM peptide substrate
How it was run: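 IC50 derived by curve fitting of dose-response inhibition, read as separation of phosphorylated from unphosphorylated FITC peptide (1.5 μM) after EDTA stop. Buffer: HEPES pH 7.5, MgCl2, Brij-35, DTT; ATP 5 μM; final DMSO <2%; reaction initiated by Rho kinase addition.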

ROCK2, sequence (O75116 whole entry, species assumed): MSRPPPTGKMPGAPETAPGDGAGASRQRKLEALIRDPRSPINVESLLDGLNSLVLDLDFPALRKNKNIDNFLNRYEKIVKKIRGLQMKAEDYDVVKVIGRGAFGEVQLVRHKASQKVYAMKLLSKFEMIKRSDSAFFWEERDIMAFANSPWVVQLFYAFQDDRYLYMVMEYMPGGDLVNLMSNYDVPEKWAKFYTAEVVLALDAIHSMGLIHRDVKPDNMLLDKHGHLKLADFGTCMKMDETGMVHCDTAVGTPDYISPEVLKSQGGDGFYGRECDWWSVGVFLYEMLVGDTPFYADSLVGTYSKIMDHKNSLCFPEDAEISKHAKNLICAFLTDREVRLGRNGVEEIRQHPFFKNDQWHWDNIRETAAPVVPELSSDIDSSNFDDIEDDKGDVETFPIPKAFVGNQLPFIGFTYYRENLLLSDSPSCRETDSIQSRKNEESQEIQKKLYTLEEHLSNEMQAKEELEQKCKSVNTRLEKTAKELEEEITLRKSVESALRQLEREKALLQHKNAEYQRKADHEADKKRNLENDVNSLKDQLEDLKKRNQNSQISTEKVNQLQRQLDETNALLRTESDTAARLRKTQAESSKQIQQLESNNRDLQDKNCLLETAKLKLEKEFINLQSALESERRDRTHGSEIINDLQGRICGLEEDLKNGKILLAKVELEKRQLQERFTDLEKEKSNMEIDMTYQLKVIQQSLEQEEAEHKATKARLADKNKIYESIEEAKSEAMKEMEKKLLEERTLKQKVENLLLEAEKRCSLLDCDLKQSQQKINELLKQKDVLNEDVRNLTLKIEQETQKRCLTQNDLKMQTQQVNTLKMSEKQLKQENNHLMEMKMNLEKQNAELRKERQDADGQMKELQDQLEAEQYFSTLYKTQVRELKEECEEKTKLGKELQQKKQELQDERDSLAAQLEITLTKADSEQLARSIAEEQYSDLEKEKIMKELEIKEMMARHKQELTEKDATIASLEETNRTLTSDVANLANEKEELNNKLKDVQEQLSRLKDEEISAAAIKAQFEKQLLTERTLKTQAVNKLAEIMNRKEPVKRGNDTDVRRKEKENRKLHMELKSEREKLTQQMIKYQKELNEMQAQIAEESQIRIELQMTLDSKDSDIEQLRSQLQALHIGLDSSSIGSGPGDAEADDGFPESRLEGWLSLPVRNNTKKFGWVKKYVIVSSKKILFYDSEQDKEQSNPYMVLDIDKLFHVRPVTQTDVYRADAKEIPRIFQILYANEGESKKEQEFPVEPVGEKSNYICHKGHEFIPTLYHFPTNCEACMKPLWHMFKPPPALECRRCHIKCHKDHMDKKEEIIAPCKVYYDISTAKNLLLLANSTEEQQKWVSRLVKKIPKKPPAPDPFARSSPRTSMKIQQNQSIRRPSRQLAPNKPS

Row | Structure (SMILES) | IC50 [nM]
1 | O=C1N(c2ccc(-c3cn[nH]c3)cc2)CC2(CCNCC2)N1Cc1cccc(F)c1F [Example 64] | 3 to 30
2 | CN(C)C1CN(C(=O)c2cccc(CN3C(=O)N(c4ccc(-c5cn[nH]c5)cc4)CC34CCOCC4)c2)C1 [Example 46, 3-(4-(1H-pyrazol-4-yl)phenyl)-1-(3-(3-(dimethylamino)azetidine-1-carbonyl)benzyl)-8-oxa-1,3-diazaspiro[4.5]decan-2-one] | 3 to 30
3 | COc1cc(F)cc(CN2C(=O)N(c3ccc(-c4cn[nH]c4)cc3)CC23CC3)c1 [Example 8, 6-(4-(1H-pyrazol-4-yl)phenyl)-4-(3-fluoro-5-methoxybenzyl)-4,6-diazaspiro[2.4]heptan-5-one] | < 3
4 | COc1cccc(CN2C(=O)N(c3ccc(-c4cn[nH]c4)cc3)CC23CCN(C(C)=O)CC3)c1 [Example 76, 3-(4-(1H-pyrazol-4-yl)phenyl)-8-acetyl-1-(3-methoxybenzyl)-1,3,8-triazaspiro[4.5]decan-2-one] | < 3
5 | CC(=O)N1CCC2(CC1)CN(c1ccc(-c3cn[nH]c3)cc1)C(=O)N2Cc1ccc(F)cc1F [Example 81, 3-(4-(1H-pyrazol-4-yl)phenyl)-8-acetyl-1-(2,4-difluorobenzyl)-1,3,8-triazaspiro[4.5]decan-2-one] | 30 to 250
6 | COc1cc(F)ccc1CN1C(=O)N(c2ccc(-c3cn[nH]c3)cc2)CC12CCOCC2 [Example 28, 3-(4-(1H-pyrazol-4-yl)phenyl)-1-(4-fluoro-2-methoxybenzyl)-8-oxa-1,3-diazaspiro[4.5]decan-2-one] | 30 to 250
7 | CC(=O)N1CCC2(CC1)CN(c1ccc(-c3cn[nH]c3)cc1)C(=O)N2CC1CCCCC1 [Example 79, 3-(4-(1H-pyrazol-4-yl)phenyl)-8-acetyl-1-(cyclohexylmethyl)-1,3,8-triazaspiro[4.5]decan-2-one] | 30 to 250
8 | O=C1N(c2ccc(-c3cn[nH]c3)cc2)CC2(CCOCC2)N1Cc1c(F)cccc1F [Example 23, 3-(4-(1H-pyrazolo-4-yl)phenyl)-1-(2,6-difluorobenzyl)-8-oxa-1,3-diazaspiro[4.5]decan-2-one] | 250 to 3000
9 | CCc1nc(N2CC3(CCN(CC(F)F)CC3)N(Cc3cc(F)cc(OC)c3)C2=O)ccc1-c1cn[nH]c1 [Example 129, 8-(2,2-difluoroethyl)-3-(6-ethyl-5-(1H-pyrazol-4-yl)pyridin-2-yl)-1-(3-fluoro-5-methoxybenzyl)-1,3,8-triazaspiro[4.5]decan-2-one] | 3 to 30
10 | COc1cccc(C(C)N2C(=O)N(c3ccc(-c4cn[nH]c4)cc3)CC23CC3)c1 (single isomer, unassigned) [Example 3, 6-(4-(1H-pyrazol-4-yl)phenyl)-4-(1-(3-methoxyphenyl)ethyl)-4,6-diazaspiro[2.4]heptan-5-one] | 30 to 250
11 | O=C(NCC(F)(F)F)c1cccc(CN2C(=O)N(c3ccc(-c4cn[nH]c4)cc3)CC23CCOCC3)c1 [Example 38, 3-((3-(4-(1H-pyrazol-4-yl)phenyl)-2-oxo-8-oxa-1,3-diazaspiro[4.5]decan-1-yl)methyl)-N-(2,2,2-trifluoroethyl)benzamide] | < 3
12 | CCc1cc(N2CC3(CC3)N(Cc3cc(F)cc(OC)c3)C2=O)ccc1-c1cn[nH]c1 [Example 4, 6-(3-ethyl-4-(1H-pyrazol-4-yl)phenyl)-4-(3-fluoro-5-methoxybenzyl)-4,6-diazaspiro[2.4]heptan-5-one] | 3 to 30
13 | CC1(NC(=O)c2cccc(CN3C(=O)N(c4ccc(-c5cn[nH]c5)cc4)CC34CCOCC4)c2)CC1 [Example 39, 3-((3-(4-(1H-pyrazol-4-yl)phenyl)-2-oxo-8-oxa-1,3-diazaspiro[4.5]decan-1-yl)methyl)-N-(1-methylcyclopropyl)benzamide] | 3 to 30
14 | COc1cccc(CN2C(=O)N(c3ccc(-c4cn[nH]c4)cc3)CC23CCN(CCc2ccccc2)CC3)c1 [Example 125, 3-(4-(1H-pyrazol-4-yl)phenyl)-1-(3-methoxybenzyl)-8-phenethyl-1,3,8-triazaspiro[4.5]decan-2-one] | 3 to 30
15 | O=C(c1cccc(CN2C(=O)N(c3ccc(-c4cn[nH]c4)cc3)CC23CCOCC3)c1)N1CC(F)C1 [Example 43, 3-(4-(1H-pyrazol-4-yl)phenyl)-1-(3-(3-fluoroazetidine-1-carbonyl)benzyl)-8-oxa-1,3-diazaspiro[4.5]decan-2-one] | 250 to 3000
16 | CCc1nc(N2CC3(CCN(C(C)=O)CC3)N(Cc3cc(F)cc(OC)c3)C2=O)ccc1-c1cn[nH]c1 [Example 89, 8-acetyl-3-(6-ethyl-5-(1H-pyrazol-4-yl)pyridin-2-yl)-1-(3-fluoro-5-methoxybenzyl)-1,3,8-triazaspiro[4.5]decan-2-one] | < 3
17 | O=C(NCCO)c1cccc(CN2C(=O)N(c3ccc(-c4cn[nH]c4)cc3)CC23CCOCC3)c1 [Example 36, 3-((3-(4-(1H-pyrazol-4-yl)phenyl)-2-oxo-8-oxa-1,3-diazaspiro[4.5]decan-1-yl)methyl)-N-(2-hydroxyethyl)benzamide] | < 3

The remaining lines, values ahead:

Row | IC50 [nM] | Structure (SMILES)
18 | < 3 | COc1cccc(CN2C(=O)N(c3ccc(-c4cn[nH]c4)cc3)CC23CCN(C(=O)[C@@H](C)O)CC3)c1 [Example 178, (R)-3-(4-(1H-pyrazol-4-yl)phenyl)-8-(2-hydroxypropanoyl)-1-(3-methoxybenzyl)-1,3,8-triazaspiro[4.5]decan-2-one]
19 | 3 to 30 | CCc1nc(N2CC3(CCN(C(=O)C(C)(C)O)CC3)N(Cc3cccc(OC)c3)C2=O)ccc1-c1cn[nH]c1 [Example 205, 3-(6-ethyl-5-(1H-pyrazol-4-yl)pyridin-2-yl)-8-(2-hydroxy-2-methylpropanoyl)-1-(3-methoxybenzyl)-1,3,8-triazaspiro[4.5]decan-2-one]
20 | < 3 | COC(=O)N1CCC2(CC1)CN(c1ccc(-c3cn[nH]c3)c(OC)n1)C(=O)N2Cc1cccc(OC)c1 [Example 102, methyl 3-(6-methoxy-5-(1H-pyrazol-4-yl)pyridin-2-yl)-1-(3-methoxybenzyl)-2-oxo-1,3,8-triazaspiro[4.5]decane-8-carboxylate]
21 | < 3 | CCCOC(=O)N1CCC2(CC1)CN(c1ccc(-c3cn[nH]c3)cc1)C(=O)N2Cc1cccc(OC)c1 [Example 100, propyl 3-(4-(1H-pyrazol-4-yl)phenyl)-1-(3-methoxybenzyl)-2-oxo-1,3,8-triazaspiro[4.5]decane-8-carboxylate]
22 | < 3 | COC(=O)N1CCC2(CC1)CN(c1ccc(-c3cn[nH]c3)cc1)C(=O)N2Cc1cccc(OC)c1 [Example 94, Methyl 3-(4-(1H-pyrazol-4-yl)phenyl)-1-(3-methoxybenzyl)-2-oxo-1,3,8-triazaspiro[4.5]decane-8-carboxylate]
23 | 250 to 3000 | COc1cccc(NC2C(=O)N(c3ncc(-c4cn[nH]c4)c(OC)n3)CC23CCN(C(=O)OC(C)(C)C)CC3)c1 (centres unmarked) [Example 241, tert-butyl 2-(4-methoxy-5-(1H-pyrazol-4-yl)pyrimidin-2-yl)-4-((3-methoxyphenyl)amino)-3-oxo-2,8-diazaspiro[4.5]decane-8-carboxylate]
24 | 30 to 250 | CCOC(=O)N1CCC2(CC1)CN(c1ccc(-c3cn[nH]c3)cn1)C(=O)N2Cc1cccc(OC)c1 [Example 110, ethyl 3-(5-(1H-pyrazol-4-yl)pyridin-2-yl)-1-(3-methoxybenzyl)-2-oxo-1,3,8-triazaspiro[4.5]decane-8-carboxylate]
25 | < 3 | COc1cccc(CN2C(=O)N(c3ccc(-c4cn[nH]c4)cc3)CC23CCN(C(=O)C2CCC(F)(F)C2)CC3)c1 (centres unmarked) [Example 175, 3-(4-(1H-pyrazol-4-yl)phenyl)-8-(3,3-difluorocyclopentane-carbonyl)-1-(3-methoxybenzyl)-1,3,8-triazaspiro[4.5]decan-2-one]
26 | 250 to 3000 | COc1ccc(CCC(=O)N2CCC3(CC2)CN(c2ccc(-c4cn[nH]c4)cn2)C(=O)C3Nc2cccc(OC)c2)cc1 (centres unmarked) [Example 255, -(5-(1H-pyrazol-4-yl)pyridin-2-yl)-4-((3-methoxy-phenyl)amino)-8-(3-(4-methoxy-phenyl)propanoyl)-2,8-diazaspiro [4.5]decan-3-one]
27 | < 3 | CCc1nc(N2CC3(CCN(C(=O)CN(C)C)CC3)N(Cc3cccc(OC)c3)C2=O)ccc1-c1cn[nH]c1 [Example 203, 8-(2-(dimethylamino)acetyl)-3-(6-ethyl-5-(1H-pyrazol-4-yl)pyridin-2-yl)-1-(3-methoxybenzyl)-1,3,8-triazaspiro[4.5]decan-2-one]
28 | < 3 | COc1cccc(CN2C(=O)N(c3ccc(-c4cn[nH]c4)cc3)CC23CCN(C(=O)C(C)(C)O)CC3)c1 [Example 192, 3-(4-(1H-pyrazol-4-yl)phenyl)-8-(2-hydroxy-2-methylpropanoyl)-1-(3-methoxybenzyl)-1,3,8-triazaspiro[4.5]decan-2-one]
29 | < 3 | CCc1nc(N2CC3(CCN(C(=O)C(C)O)CC3)N(Cc3cc(F)cc(OC)c3)C2=O)ccc1-c1cn[nH]c1 (centres unmarked) [Example 188, 3-(6-ethyl-5-(1H-pyrazol-4-yl)pyridin-2-yl)-1-(3-fluoro-5-methoxybenzyl)-8-(2-hydroxypropanoyl)-1,3,8-triazaspiro[4.5]decan-2-one]
30 | < 3 | CCc1nc(N2CC3(CCN(C(=O)C(C)C)CC3)N(Cc3cccc(OC)c3)C2=O)ccc1-c1cn[nH]c1 [Example 201, 3-(6-ethyl-5-(1H-pyrazol-4-yl)pyridin-2-yl)-8-isobutyryl-1-(3-methoxybenzyl)-1,3,8-triazaspiro[4.5]decan-2-one]
31 | < 3 | COC(=O)N1CCC2(CC1)CN(c1ccc(-c3cn[nH]c3)cc1)C(=O)N2Cc1cc(F)cc(OC)c1 [Example 109, methyl 3-(4-(1H-pyrazol-4-yl)phenyl)-1-(3-fluoro-5-methoxybenzyl)-2-oxo-1,3,8-triazaspiro[4.5]decane-8-carboxylate]
32 | 3 to 30 | COc1cccc(CN2C(=O)N(c3ccc(-c4cn[nH]c4)cc3)CC23CCN(C(=O)OCCOCc2ccccc2)CC3)c1 [Example 101, 2-(benzyloxy)ethyl 3-(4-(1H-pyrazol-4-yl)phenyl)-1-(3-methoxybenzyl)-2-oxo-1,3,8-triazaspiro[4.5]decane-8-carboxylate]
